Data published in ChEMBL document CHEMBL5532691, “Anti-cancer activity and mechanism of flurbiprofen organoselenium compound RY-1-92 in non-small cell lung cancer” (RSC Med Chem, 2024).

Tested on: BEAS-2B
Assay: Cytotoxicity against human BEAS-2B cells assessed as reduction in cell viability at 25 uM measured after 48 hrs by MTT assay
Assay type: toxicity, cell-based

Which Activity does the source give for `O=c1[nH]cc(F)c(=O)[nH]1` [FLUOROURACIL] here?
The Activity was “Toxic”.
